The experiment has as its target CFTR-mediated chloride transport (Homo sapiens, UniProt P13569). The experiment can be described thus: Corrector Assay A - membrane potential dye assay (enteroid cells). As to conditions: for Corrector Assay A % activity: % of chloride transport of triple combination control (1 μM (14S)-dispiro macrocycle + 3 μM tezacaftor + 300 nM ivacaftor); for pEC50: read-out: Corrector Assay A EC50, human intestinal enteroid cells, 18-24 h incubation, acute 10 μM forskolin + 300 nM ivacaftor.

As usually defined, the pEC50 is −log10 of the EC50, conventionally taken in molar units.

pEC50: −log10 of the molar value.

In the case of `CCOc1cccc(-c2ccc3c(n2)N2C[C@@H](CC[C@@H](c4ccccn4)Nc4cccc(n4)S(=O)(=O)NC3=O)CC2(C)C)n1` [Compound 317], the “Corrector Assay A % activity” value was “++ (++ is 30-60%)” and the pEC50 was more than 6.00.

Take `CC(C)(C)c1ccc2c(n1)N1C[C@@H](CCC(c3ccc(C4CCOCC4)cn3)Nc3cccc(n3)S(=O)(=O)NC2=O)CC1(C)C` (some centres unmarked) [Compound 156]: the “Corrector Assay A % activity” value is recorded as “++ (++ is 30-60%)” and the pEC50 is more than 6.00.

With `COC[C@@H]1CC[C@@H]2CN(c3nc(C(C)(C)C)ccc3C(=O)NS(=O)(=O)c3cccc(n3)N1)C(C)(C)C2` (single isomer, unassigned) [Compound 276], the “Corrector Assay A % activity” value was “++ (++ is 30-60%)” and the pEC50 is more than 6.00.

As for `CC(C)(C)c1ccc2c(n1)N1C[C@@H](CC[C@H](c3cccc(CNCC(F)(F)F)n3)Nc3cccc(n3)S(=O)(=O)NC2=O)CC1(C)C` [Compound 50, (14S,17R)-8-tert-Butyl-12,12-dimethyl-17-(6-{[(2,2,2-trifluoroethyl)amino]methyl}pyridin-2-yl)-2λ^6-thia-3,9,11,18,23-pentaazatetracyclo[17.3.1.111,14.05,10]tetracosa-1(22),5,7,9,19(23),20-hexaene-2,2,4-trione], the “Corrector Assay A % activity” value is “+++ (+++ is >60%)” and the pEC50 is 5.52 to 6.00.

As to `CC(C)(C)c1ccc2c(n1)N1C[C@@H](CCC(C(C)(C)C)Nc3cccc(n3)S(=O)(=O)NC2=O)CC1(C)C` (single isomer, unassigned) [Compound 245], the “Corrector Assay A % activity” value is “++ (++ is 30-60%)” and the pEC50 was more than 6.00.

On to `CC1(COc2ccn(-c3ccc4c(n3)N3C[C@@H](CC[C@H](c5ccccn5)Nc5cccc(n5)S(=O)(=O)NC4=O)CC3(C)C)n2)CC1` [Compound 321], for which the “Corrector Assay A % activity” value is on record as “+++ (+++ is >60%)” and the negative logarithm of the EC50 (pEC50) was more than 6.00.

Turning to `CC1(C)C[C@@H]2CC[C@H](c3ccccn3)Nc3cccc(n3)S(=O)(=O)NC(=O)c3ccc(-n4ccc(OCC5CC5)n4)nc3N1C2` [Compound 334], the “Corrector Assay A % activity” value is “+++ (+++ is >60%)” and the pEC50 was more than 6.00.

Turning to `CC(C)(O)/C=C/CC1CC[C@@H]2CN(c3nc(C(C)(C)C)ccc3C(=O)NS(=O)(=O)c3cccc(n3)N1)C(C)(C)C2` (single isomer, unassigned) [Compound 24], the “Corrector Assay A % activity” value is “++ (++ is 30-60%)” and the pEC50 is more than 6.00.

Consider `CC(C)(C)CCOc1ccn(-c2ccc3c(n2)N2C[C@@H](CC[C@H](c4cc(C(C)(C)C)ccn4)Nc4cccc(n4)S(=O)(=O)NC3=O)CC2(C)C)n1` [Compound 305, (14S,17R)-17-(4-tert-butylpyridin-2-yl)-8-[3-(3,3-dimethylbutoxy)-1H-pyrazol-1-yl]-12,12-dimethyl-2λ^6-thia-3,9,11,18,23-pentaazatetracyclo[17.3.1.111,14.05,10]tetracosa-1(22),5,7,9,19(23),20-hexaene-2,2,4-trione], for which the “Corrector Assay A % activity” value is reported as “+++ (+++ is >60%)” and the pEC50 was more than 6.00.

For the compound `CC(C)(C)c1ccc2c(n1)N1C[C@@H](CCC(c3ccc(C4CCNCC4)cn3)Nc3cccc(n3)S(=O)(=O)NC2=O)CC1(C)C` (stereo partly drawn) [Compound 154, (14S)-8-tert-Butyl-12,12-dimethyl-17-[5-(piperidin-4-yl)pyridin-2-yl]-2λ^6-thia-3,9,11,18,23-pentaazatetracyclo[17.3.1.111,14.05,10]tetracosa-1(23),5(10),6,8,19,21-hexaene-2,2,4-trione], the “Corrector Assay A % activity” value is given as “+++ (+++ is >60%)” and the negative-log EC50 (pEC50) was more than 6.00.

On to `CC1CCC2CN(c3nc(C(C)(C)C)ccc3C(=O)NS(=O)(=O)c3ccn1n3)C(C)(C)C2` (single isomer, unassigned) [Compound 272], for which the “Corrector Assay A % activity” value is listed as “+++ (+++ is >60%)” and the negative logarithm of the EC50 (pEC50) is more than 6.00.

As for `CC(C)(C)c1cccc(C2CC[C@@H]3CN(c4nc(C(C)(C)C)ccc4C(=O)NS(=O)(=O)c4cccc(n4)N2)C(C)(C)C3)c1` (single isomer, unassigned) [Compound 41], the “Corrector Assay A % activity” value is listed as “+++ (+++ is >60%)” and the negative-log EC50 (pEC50) was more than 6.00.

As to `CC1(C)CCCc2cc3c(nc21)N1C[C@@H](CCC(c2ccccn2)Nc2cccc(n2)S(=O)(=O)NC3=O)CC1(C)C` (single isomer, unassigned) [Compound 264], the “Corrector Assay A % activity” value was “++ (++ is 30-60%)” and the pEC50 is more than 6.00.

As to `Cn1cc(C2CC[C@@H]3CN(c4nc(C(C)(C)C)ccc4C(=O)NS(=O)(=O)c4cccc(n4)N2)C(C)(C)C3)cn1` (single isomer, unassigned) [Compound 281], the “Corrector Assay A % activity” value is on record as “+++ (+++ is >60%)” and the pEC50 was more than 6.00.

Regarding `Cn1nccc1-c1ccc(C2CC[C@@H]3CN(c4nc(C(C)(C)C)ccc4C(=O)NS(=O)(=O)c4cccc(n4)N2)C(C)(C)C3)nc1` (some centres unmarked) [Compound 57], the “Corrector Assay A % activity” value is “++ (++ is 30-60%)” and the negative logarithm of the EC50 (pEC50) is more than 6.00.

`CC1(C)C[C@@H]2CC[C@H](c3ccccn3)Nc3cccc(n3)S(=O)(=O)NC(=O)c3ccc(-c4cccc(F)n4)nc3N1C2` [Compound 318, (14S,17R)-8-(6-fluoropyridin-2-yl)-12,12-dimethyl-17-(pyridin-2-yl)-2λ^6-thia-3,9,11,18,23-pentaazatetracyclo[17.3.1.111,14.05,10]tetracosa-1(22),5,7,9,19(23),20-hexaene-2,2,4-trione]: the “Corrector Assay A % activity” value was “+++ (+++ is >60%)” and the negative logarithm of the EC50 (pEC50) was more than 6.00.

Take `COc1cccc(-c2ccc3c(n2)N2C[C@@H](CC[C@@H](c4ccccn4)Nc4cccc(n4)S(=O)(=O)NC3=O)CC2(C)C)n1` [Compound 338]: the “Corrector Assay A % activity” value is “+++ (+++ is >60%)” and the negative logarithm of the EC50 (pEC50) was more than 6.00.

Consider `CC(C)(C)c1ccc2c(n1)N1C[C@@H](CCC(C3CCNCC3)Nc3cccc(n3)S(=O)(=O)NC2=O)CC1(C)C` (single isomer, unassigned) [Compound 249], for which the “Corrector Assay A % activity” value is on record as “++ (++ is 30-60%)” and the pEC50 is less than 5.52.

With `CC(C)(C)c1ccc2c(n1)N1C[C@@H](CC[C@@H](C3CCCCC3)Nc3cccc(n3)S(=O)(=O)NC2=O)CC1(C)C` (single isomer, unassigned) [Compound 235], the “Corrector Assay A % activity” value is recorded as “++ (++ is 30-60%)” and the negative-log EC50 (pEC50) is more than 6.00.

`CC1(C)C[C@@H]2CC[C@@H](c3ccccn3)Nc3cccc(n3)S(=O)(=O)NC(=O)c3ccc(Br)nc3N1C2` [Compound 247, (14S,17S)-8-bromo-12,12-dimethyl-17-(pyridin-2-yl)-2λ^6-thia-3,9,11,18,23-pentaazatetracyclo[17.3.1.111,14.05,10]tetracosa-1(22),5,7,9,19(23),20-hexaene-2,2,4-trione]: the “Corrector Assay A % activity” value was “+ (+ is <30%)” and the negative logarithm of the EC50 (pEC50) was more than 6.00.

For the compound `CC(C)(C)OC(=O)N1CCC(c2ccnc(C3CC[C@@H]4CN(c5nc(C(C)(C)C)ccc5C(=O)NS(=O)(=O)c5cccc(n5)N3)C(C)(C)C4)c2)CC1` (stereo partly drawn) [Compound 118, tert-butyl 4-{2-[(14S)-8-tert-butyl-12,12-dimethyl-2,2,4-trioxo-2λ^6-thia-3,9,11,18,23-pentaazatetracyclo[17.3.1.111,14.05,10]tetracosa-1(23),5(10),6,8,19,21-hexaen-17-yl]pyridin-4-yl}piperidine-1-carboxylate], the “Corrector Assay A % activity” value is on record as “++ (++ is 30-60%)” and the pEC50 was more than 6.00.

On to `CC(C)c1cnn(-c2ccc3c(n2)N2C[C@@H](CC[C@H](c4ccccn4)Nc4cccc(n4)S(=O)(=O)NC3=O)CC2(C)C)c1` [Compound 323], for which the “Corrector Assay A % activity” value was “++ (++ is 30-60%)” and the negative logarithm of the EC50 (pEC50) is more than 6.00.

With `CC(C)(C)c1ccc2c(n1)N1C[C@@H](CC[C@H](c3cccc(CCCN)n3)Nc3cccc(n3)S(=O)(=O)NC2=O)CC1(C)C` [Compound 134, (14S,17R)-17-[6-(3-aminopropyl)pyridin-2-yl]-8-tert-butyl-12,12-dimethyl-2λ^6-thia-3,9,11,18,23-pentaazatetracyclo[17.3.1.111,14.05,10]tetracosa-1(23),5(10),6,8,19,21-hexaene-2,2,4-trione], the “Corrector Assay A % activity” value is “+++ (+++ is >60%)” and the negative logarithm of the EC50 (pEC50) is more than 6.00.

With `CN(C)Cc1ccc(C2CC[C@@H]3CN(c4nc(C(C)(C)C)ccc4C(=O)NS(=O)(=O)c4cccc(n4)N2)C(C)(C)C3)nc1` (some centres unmarked) [Compound 102], the “Corrector Assay A % activity” value is “+++ (+++ is >60%)” and the negative-log EC50 (pEC50) is more than 6.00.

For the compound `Cn1nccc1C1CC[C@@H]2CN(c3nc(C(C)(C)C)ccc3C(=O)NS(=O)(=O)c3cccc(n3)N1)C(C)(C)C2` (single isomer, unassigned) [Compound 285], the “Corrector Assay A % activity” value was “+++ (+++ is >60%)” and the pEC50 was more than 6.00.

Consider `CN1CCC(C2CC[C@@H]3CN(c4nc(C(C)(C)C)ccc4C(=O)NS(=O)(=O)c4cccc(n4)N2)C(C)(C)C3)CC1` (single isomer, unassigned) [Compound 241], for which the “Corrector Assay A % activity” value was “++ (++ is 30-60%)” and the pEC50 is more than 6.00.

Turning to `CC(C)(C)c1ccc2c(n1)N1C[C@@H](CCC(c3cc(C(N)=O)ccn3)Nc3cccc(n3)S(=O)(=O)NC2=O)CC1(C)C` (single isomer, unassigned) [Compound 83], the “Corrector Assay A % activity” value is on record as “++ (++ is 30-60%)” and the pEC50 was more than 6.00.

For the compound `CC(C)C1CC[C@@H]2CN(c3nc(-n4ccc(OCCC5C6(CC6)C56CC6)n4)ccc3C(=O)NS(=O)(=O)c3cccc(n3)N1)C(C)(C)C2` (single isomer, unassigned) [Compound 354], the “Corrector Assay A % activity” value is given as “+++ (+++ is >60%)” and the pEC50 was more than 6.00.

Consider `CC(C)(C)c1ccc2c(n1)N1C[C@@H](CC[C@@H](c3ccncn3)Nc3cccc(n3)S(=O)(=O)NC2=O)CC1(C)C` (single isomer, unassigned) [Compound 217], for which the “Corrector Assay A % activity” value is reported as “++ (++ is 30-60%)” and the pEC50 was more than 6.00.

For `CC(C)(C)c1ccc2c(n1)N1C[C@@H](CC[C@@H](c3ccncn3)Nc3cccc(n3)S(=O)(=O)NC2=O)CC1(C)C` (single isomer, unassigned) [Compound 216], the “Corrector Assay A % activity” value is on record as “+ (+ is <30%)”.

Values taken from patent publication US20220313698A1, “MODULATORS OF CYSTIC FIBROSIS TRANSMEMBRANE CONDUCTANCE REGULATOR” (Vertex Pharmaceuticals Incorporated, priority 2019, published 2022).
